Experimental data taken from patent US20050181376A1, “Antisense modulation of microsomal triglyceride transfer protein expression” (ISIS Pharmaceuticals, Inc., priority 2001, published 2005).
Strand notation (5' to 3'): a small letter for the sugar, then the base; units joined by * are phosphorothioate-linked, units joined directly phosphodiester-linked; [ ] holds rarer units or linkages, { } end groups; capitals alone tell only the bases. e = 2'-O-(2-methoxyethyl) (MOE); [5mC] = 5-methylcytosine; d = 2'-deoxy (DNA)

Tested on: mouse microsomal triglyceride transfer protein mRNA
Assay: Antisense inhibition of mouse microsomal triglyceride transfer protein mRNA levels in primary hepatocytes, quantitative real-time PCR
Assay type: cell-based
Parameters: concentration or dose not given beside the values
Details: averages from two experiments
Procedure: Primary mouse hepatocytes were prepared from CD-1 mice purchased from Charles River Labs (Wilmington, Mass.) and were routinely cultured in Hepatocyte Attachment Media (Gibco) supplemented with 10% Fetal Bovine Serum (Gibco/Life Technologies, Gaithersburg, Md.), 250 nM dexamethasone (Sigma), and 10 nM bovine insulin (Sigma). Cells were seeded into 96-well plates (Falcon-Primaria #3872) at a density of 10000 cells/well for use in RT-PCR analysis.
Cells were harvested 16-24 hours after oligonucleotide treatment.
All cytidine residues are 5-methylcytidines. […] Data are averages from two experiments. If present, “N.D.” indicates “no data”.

In the case of “CGCTGACAGGGTCGCCGGAT (all phosphorothioate, sugars by position and methylation of C not given here; 2'-MOE wings and deoxy gap) [ISIS 144499, 2′-MOE gapmer phosphorothioate antisense oligonucleotide to mouse MTP]”, the “% INHIB (inhibition of mouse microsomal triglyceride transfer protein mRNA levels)” value is reported as “at least 30%”.
For “TGCACAACGGTGAGCATGTA (all phosphorothioate, sugars by position and methylation of C not given here; 2'-MOE wings and deoxy gap) [ISIS 144492, 2′-MOE gapmer phosphorothioate antisense oligonucleotide to mouse MTP]”, the “% INHIB (inhibition of mouse microsomal triglyceride transfer protein mRNA levels)” value was “at least 30%”.
For “CCCAGCACCTGGTTTGCCGT (all phosphorothioate, sugars by position and methylation of C not given here; 2'-MOE wings and deoxy gap) [ISIS 144477, 2′-MOE gapmer phosphorothioate antisense oligonucleotide to mouse MTP]”, the “% INHIB (inhibition of mouse microsomal triglyceride transfer protein mRNA levels)” value was “at least 30%”.
With “GCTCGAGGACCTGTCCCACA (all phosphorothioate, sugars by position and methylation of C not given here; 2'-MOE wings and deoxy gap) [ISIS 144480, 2′-MOE gapmer phosphorothioate antisense oligonucleotide to mouse MTP]” the “% INHIB (inhibition of mouse microsomal triglyceride transfer protein mRNA levels)” value was “at least 30%”.
With “CACCTGCCACTTGCTTCCCG (all phosphorothioate, sugars by position and methylation of C not given here; 2'-MOE wings and deoxy gap) [ISIS 144479, 2′-MOE gapmer phosphorothioate antisense oligonucleotide to mouse MTP]” the “% INHIB (inhibition of mouse microsomal triglyceride transfer protein mRNA levels)” value was “at least 30%”.
In the case of “CTCTGATGTCGTTGCTTGCA (all phosphorothioate, sugars by position and methylation of C not given here; 2'-MOE wings and deoxy gap) [ISIS 144485, 2′-MOE gapmer phosphorothioate antisense oligonucleotide to mouse MTP]”, the “% INHIB (inhibition of mouse microsomal triglyceride transfer protein mRNA levels)” value is reported as “at least 30%”.
With “CTGCAATTAAGCCTTCCAGC (all phosphorothioate, sugars by position and methylation of C not given here; 2'-MOE wings and deoxy gap) [ISIS 144496, 2′-MOE gapmer phosphorothioate antisense oligonucleotide to mouse MTP]” the “% INHIB (inhibition of mouse microsomal triglyceride transfer protein mRNA levels)” value was “at least 30%”.
“TGACATGCCAGCATAAGAGT (all phosphorothioate, sugars by position and methylation of C not given here; 2'-MOE wings and deoxy gap) [ISIS 144498, 2′-MOE gapmer phosphorothioate antisense oligonucleotide to mouse MTP]” was tested, and the “% INHIB (inhibition of mouse microsomal triglyceride transfer protein mRNA levels)” value was “at least 30%”.
“GTGGCTGACGGGCCCTTCTC (all phosphorothioate, sugars by position and methylation of C not given here; 2'-MOE wings and deoxy gap) [ISIS 144489, 2′-MOE gapmer phosphorothioate antisense oligonucleotide to mouse MTP]” was tested, and the “% INHIB (inhibition of mouse microsomal triglyceride transfer protein mRNA levels)” value was “at least 30%”.

In order of rising “% INHIB (inhibition of mouse microsomal triglyceride transfer protein mRNA levels)” value:
1. 144468 (eG*eA*eT*e[5mC]*eA*dT*dG*d[5mC]*dT*dG*dG*d[5mC]*dT*d[5mC]*d[5mC]*e[5mC]*eT*e[5mC]*eT*eG; antisense) [compound 144468]  0%
2. 144510 (eG*eG*eT*e[5mC]*eT*dT*d[5mC]*dT*d[5mC]*d[5mC]*dT*dG*dA*dA*dT*eA*eG*eG*eT*eT; antisense) [compound 144510]  0%
3. 144509 (eA*e[5mC]*eT*eG*eT*dG*d[5mC]*dT*d[5mC]*dT*d[5mC]*dA*dG*dA*dG*eA*eG*e[5mC]*eA*eA; antisense) [compound 144509]  0%
4. 144508 (e[5mC]*eG*eT*e[5mC]*eA*dT*dA*dG*d[5mC]*dA*dT*dA*dT*d[5mC]*dG*eT*eT*e[5mC]*eT*eG; antisense) [compound 144508]  0%
5. 144504 (eG*eA*eA*e[5mC]*eT*d[5mC]*d[5mC]*dA*dG*d[5mC]*d[5mC]*d[5mC]*dA*dG*d[5mC]*e[5mC]*eT*e[5mC]*eT*eG; antisense) [compound 144504]  0%
6. 144469 (eG*eA*eG*eT*eA*d[5mC]*dG*dT*dG*dA*dG*d[5mC]*dT*dT*dG*eT*eA*eT*eA*eG; antisense) [compound 144469]  0%
7. 144482 (eG*eA*eA*eG*eT*d[5mC]*d[5mC]*dG*dG*dA*dG*dG*dT*dG*d[5mC]*eT*eG*eG*eA*eT; antisense) [compound 144482]  3%
8. 144475 (eT*eG*eG*eA*eA*dT*dA*dA*dG*d[5mC]*dT*dA*dG*d[5mC]*d[5mC]*eA*eA*eG*e[5mC]*e[5mC]; antisense) [compound 144475]  18%
9. 144476 (e[5mC]*e[5mC]*e[5mC]*eA*eG*dA*dG*dA*dT*dA*dT*d[5mC]*dT*dA*d[5mC]*e[5mC]*eT*e[5mC]*eG*eT; antisense) [compound 144476]  19%
10. 144483 (e[5mC]*eA*eG*eA*eG*dG*dT*dG*dA*d[5mC]*dG*dG*d[5mC]*dA*dT*e[5mC]*e[5mC]*eA*e[5mC]*e[5mC]; antisense) [compound 144483]  22%
11. 144490 (eA*e[5mC]*eG*eA*eT*dT*d[5mC]*dT*dG*dG*dT*dG*dG*dT*dA*eT*eA*eT*e[5mC]*e[5mC]; antisense) [compound 144490]  23%
12. 144505 (eA*eG*e[5mC]*e[5mC]*eT*dT*dG*dT*d[5mC]*d[5mC]*dA*dT*d[5mC]*dT*dG*e[5mC]*eA*eT*eG*e[5mC]; antisense) [compound 144505]  24%
13. 144481 (eT*eT*e[5mC]*e[5mC]*eA*dG*dT*dG*d[5mC]*dT*d[5mC]*d[5mC]*dG*d[5mC]*d[5mC]*eA*eG*eA*eG*eA; antisense) [compound 144481]  33%
14. 144486 (eA*eT*eT*e[5mC]*eT*dG*dA*d[5mC]*dA*d[5mC]*dA*dG*d[5mC]*dT*dT*e[5mC]*e[5mC]*eT*eG*eA; antisense) [compound 144486]  34%
15. 144500 (e[5mC]*e[5mC]*e[5mC]*eT*eT*dT*d[5mC]*dA*d[5mC]*d[5mC]*dA*d[5mC]*dG*d[5mC]*dT*eG*eA*e[5mC]*eA*eG; antisense) [compound 144500]  34%
16. 144488 (e[5mC]*eA*eG*e[5mC]*e[5mC]*dT*d[5mC]*dA*dG*d[5mC]*dA*dT*dA*d[5mC]*dT*eT*e[5mC]*eA*eG*eA; antisense) [compound 144488]  35%
17. 144492 (eT*eG*e[5mC]*eA*e[5mC]*dA*dA*d[5mC]*dG*dG*dT*dG*dA*dG*d[5mC]*eA*eT*eG*eT*eA; antisense) [compound 144492]  39%
18. 144495 (e[5mC]*eA*eG*eA*eA*dT*dG*d[5mC]*d[5mC]*dA*dG*dA*dG*d[5mC]*d[5mC]*eA*eG*eA*eG*eT; antisense) [compound 144495]  42%
19. 144501 (eG*eA*e[5mC]*e[5mC]*eA*d[5mC]*d[5mC]*d[5mC]*dT*dG*dG*dA*dT*d[5mC]*dT*e[5mC]*e[5mC]*eA*eT*eA; antisense) [compound 144501]  52%
20. 144477 (e[5mC]*e[5mC]*e[5mC]*eA*eG*d[5mC]*dA*d[5mC]*d[5mC]*dT*dG*dG*dT*dT*dT*eG*e[5mC]*e[5mC]*eG*eT; antisense) [compound 144477]  94%

Tested on: human microsomal triglyceride transfer protein mRNA
Assay: Antisense inhibition of human microsomal triglyceride transfer protein mRNA levels, quantitative real-time PCR
Details: averages from two experiments

In order of rising “% INHIB (inhibition of human microsomal triglyceride transfer protein mRNA levels)” value:
1. 144433 (eA*eT*eT*eA*eA*dG*dG*d[5mC]*dT*dT*d[5mC]*d[5mC]*dA*dG*dT*e[5mC]*e[5mC]*eT*eT*eG; antisense) [compound 144433]  0%
2. 144419 (eT*eG*eG*eT*eG*dG*dA*d[5mC]*d[5mC]*dG*d[5mC]*d[5mC]*dA*dG*dA*eG*e[5mC]*eT*e[5mC]*e[5mC]; antisense) [compound 144419]  0%
3. 144415 (eG*eT*eG*eG*eT*dT*d[5mC]*d[5mC]*dA*dG*dA*dG*d[5mC]*dT*dT*eA*eA*e[5mC]*eT*eG; antisense) [compound 144415]  0%
4. 144437 (eG*eT*eA*e[5mC]*eT*dG*dG*dT*dT*dT*d[5mC]*d[5mC]*dA*dG*dG*e[5mC]*e[5mC]*eA*eG*e[5mC]; antisense) [compound 144437]  32%
5. 144438 (eG*e[5mC]*eT*eT*e[5mC]*dA*dT*d[5mC]*d[5mC]*dT*dT*dG*dT*d[5mC]*d[5mC]*eA*eT*e[5mC]*eT*eG; antisense) [compound 144438]  53%

For “GCTTCATCCTTGTCCATCTG (antisense eG*e[5mC]*eT*eT*e[5mC]*dA*dT*d[5mC]*d[5mC]*dT*dT*dG*dT*d[5mC]*d[5mC]*eA*eT*e[5mC]*eT*eG) [ISIS 144438]”, the “% INHIB (inhibition of human microsomal triglyceride transfer protein mRNA levels)” value was “at least 30%”.
